Reference: US5814627A, “3, 5-disubstituted and 3, 4, 5-trisubstituted 2-isoxazolines and isoxazoles, process for their preparation and their use as pharmaceuticals” (Hoechst Aktienegesellschaft, priority 1994, dated 1998)
pIC50: −log10 of the molar value. Counter-ions that a name gives are not always drawn. Like-named read-outs stand apart in the source and are kept apart here.

What was measured:
adjuvant/arthritis model = assay: Test 6: antiarthritic effect in the adjuvant/arthritis model; type: in vivo, rat (Wistar-Lewis); settings: for inhibition in vivo at 50 mg/kg / inhibition in vivo at 25 mg/kg: Rattus norvegicus, po, 408 h, read-out: Test 6 Paw volume (% inhibition); for inhibition in vivo at 25 mg/kg / Test 6 Paw volume (% inhibition): 25 mg/kg orally; for Test 6 Paw volume (% inhibition): hydrochloride
Protocol: Male rats of a Wistar-Lewis strain (Mollegaard/Denmark) were used as experimental animals. The body weight is between 160 and 200 g. Subplantar injection of 0.1 ml of Freund's adjuvant (=6 mg of Mycobacterium butyricum suspension, Difco Lab./Detroit, Mich. USA, per ml of heavy white paraffin oil, Merck, Darmstadt) into the root of the tail resulted, on the 10th to 14th day of the experiment, in immunopathological processes and chronic inflammations, particularly in the form of arthritic and periarthritic symptoms, at other sites in the body (secondary lesions). The animals were fed ad libitum with the standard feed Altromin-R, from Altrogge, Lage, and provided with tap water. The animals were given 60 mg of codein per kg as an analgesic from the 14th day to the end of the experiment. The test substances were administered orally as a CMC suspension, in an injection volume of 1 ml/100 g of body weight, on each day (in all for 17 days), beginning on the day of the adjuvant administration. The volumes of each of the hind paws, and the body weight, were measured on the first and on the 18th day of the experiment. Diminution in the increase of paw volume, as compared with the untreated control group, served as the criterion of activity, with the two hind paws being averaged.

[1] = system: polymorphonuclear leucocytes (PMNL); assay: Test 1: Release of proteolytic activity from human PMNL; type: cell-based; settings: for activity at 10 µM / activity at 100 µM / activity at 1 µM: Homo sapiens, PMNL, read-out: Test 1 residual activity (release of proteolytic activity), percent of control; for Test 1 residual activity (release of proteolytic activity), percent of control: hydrochloride
Protocol: Isolation of polymorphonuclear leucocytes (PMNL) from human peripheral blood for carrying out tests 1 and 2 10 ml of human blood were diluted with 10 ml of HBSS (Serva) and underlaid with 15 ml of Lymphoprep (Dr. Molter GmbH, Heidelberg). […] A white ring, composed of mononuclear cells, is located between these two phases. The lowermost phase is composed of erythrocytes which are covered with a white layer of PMNL. The uppermost phase, and also the Lymphoprep and the white ring, were carefully removed using a syringe. The remaining sediment was carefully resuspended in 15 ml of 3% dextran in PM16 (mw: 485,000, Sigma, Deisenhofen). The suspension was then left to stand at room temperature for one hour. During this time, the erythrocytes sedimented while the PMNL remained in the supernatant. The supernatant was removed, diluted with an approximately equal volume of PM16, and centrifuged for 15 minutes at 400×g. Should the PMNL sediment be heavily contaminated with erythrocytes, it is necessary to carry out a hypotonic lysis. To do this, the sediment was resuspended in 750 μl of water. After exactly 15 seconds, the suspension was diluted with approximately 7 ml of PM16 and centrifuged for 10 minutes at 400×g. If necessary, this lysis was repeated once more. Otherwise, the PMNL sediment was resuspended in a suitable medium. 250 μl of PMNL (5·10^6 cells/ml of PBS containing 7.5 mM glucose) were incubated at 37° C. for 20 minutes with 1 μl of test substance. 1 μl of cytochalasin B (5 μg/ml of test mixture) was then added and the mixture was incubated at 37° C. for a further 5 minutes. Following the addition of 1 μl of […] necrosis factor alpha (TNF; 30 ng/ml of test mixture), the incubation was continued for 5 minutes. The release was started using 1 μl of fMLP (10 nmol/l of test mixture). After 60 minutes at 37° C., the reaction was terminated by cooling the samples down to 0° C. The samples were then centrifuged, and the supernatant was removed and frozen down. Cytochalasin B and fMLP were dissolved in DMSO and TNF was diluted with buffer. 50 μl of the supernatant were mixed with 175 μl of buffer (100 mM HEPES, pH 7.5; 500 mM NaCl) in a 96-well microtiter plate. Following the addition of 25 μl of substrate (methoxysuccinyl-[…]-nitroanilide), the extinction of each well was measured at 405 nm after 0, 5, 10, 15, 30 and 60 minutes. […] The interleukin is additionally indicated in test 4.

[2] = system: cyclooxygenase-dependent thrombocyte aggregation; assay: Test 5: Cyclooxygenase-dependent thrombocyte aggregation; type: cell-based, human; settings: arachidonic acid as inducer; for activity at 25 µM / activity at 100 µM: Homo sapiens, read-out: Test 5 residual activity (cyclooxygenase-dependent thrombocyte aggregation), percent of control; for activity at 25 µM / Test 5 residual activity (cyclooxygenase-dependent thrombocyte aggregation), percent of control: 25 μM; for Test 5 residual activity (cyclooxygenase-dependent thrombocyte aggregation), percent of control: hydrochloride
Protocol: TEST 5. Cyclooxygenase-dependent thrombocyte aggregation
Platelet-rich plasma (PRP): to inhibit coagulation, human blood was treated with 1/10 of its volume of 3.8% sodium citrate solution. Centrifugation then takes place at 105×g for 20 minutes and the supernatant (PRP) is removed. 200 μl of PRP were preincubated, at 37° C. for 10 minutes, together with 30 μl of test substance in a PAP4 aggregometer (BioData). The test substance was dissolved in organic solvent and diluted 1:30 with buffer (50 mM TisHCl, pH 8.0; 90 mM NaCl). Aggregation is triggered with 20 μl of inducer. During the aggregation, stirring takes place at 800 rpm. Arachidonic acid, 5 mg/ml, was used as the inducer.
(§1) The values in the table show the concentration of the test substance which was employed in μM and, besides this, the residual activity measured in percent based on the control, which was set to be 100%. The interleukin is additionally indicated in test 4.

[3] = system: tumor cell line 20-10-5S (hybridoma cell line); assay: Test 8: Inhibition of tumor cell proliferation; type: cell-based; settings: 48 h + 16 h tritiated thymidine incorporation; 20-10-5S cells
Protocol: The tumor cell line 20-10-5S (hybridoma cell line, supplied by ATCC (American Type Culture Collection)), which produces an antibody against mouse T cells) was used for determining the antiproliferative property of test substances. The cells were cultured, at 37° C. and 5% C2, under serum-free conditions in CG medium (cell-growth medium=Iscove-ATL (+albumin+transferrin+lipids); from Vitromex, Vilshofen). Only cells which were in the logarithmic phase of growth were used for the test mixture. The test substances were pipetted in various concentrations (from 1 to 50 μM), together with 4×10^3 20-10-5S cells, into round-bottomedmicrotiter plates (total volume with medium, 200 μl). After an incubation time of 48 h (37° C. and 5% CO2), 25 μl of tritiated thymidine (=0.25 μCi/test mixture, specific activity, 23 Ci/mM) were added to the plates. During the subsequent 16 h, the radioactively labeled thymidine was incorporated into the DNA of the growing cells. The samples were filtered off with suction on glass fiber filters and the incorporated radioactivity was measured using a β counter (Beta Plate System 1205 from Wallac).

[4] = system: leukotriene B4 synthesis in white blood cells; assay: Test 3: LTB4 formation by white blood cells; type: cell-based; settings: Homo sapiens; 10 μM; read-out: Test 3 residual activity (LTB4 formation), percent of control
Protocol: TEST 3. LTB4 formation by white blood cells
Isolation of white blood cells:
40 ml of human blood were mixed with 8 ml of 6% dextran solution (dextran, mw: 480,000 in PM16). After one hour at room temperature, the supernatant,which was composed of white blood cells, was removed, diluted with an equal volume of PM16, and centrifuged for 15 minutes at 300×g (1600 rpm). The sediment was next resuspended in approximately 5-6 ml of PM16 and, once the cell count had been determined in a Coulter Counter, adjusted to 10^7 cells/ml.
The test mixture comprised 0.24 ml of cell suspension, 0.03 ml of 20 mM CaCl2 /5 mM MgCl2 and 5 μl of test substance. Following 15 minutes of preincubation at 37° C., the reaction was started with 0.03 ml of A23187/glutathione (100 μg of A23187/ml; 15.4 μg of glutathione/ml). The incubation was terminated after 5 minutes at 37° C. by immediate cooling of the samples down to 0° C. After centrifuging for 2 minutes in an Eppendorff Centrifuge (0° C.), the supernatant was removed and examined chromatographically.
High pressure liquid chromatography (HPLC): the HPLC equipment comprises a Kratos pump (Spectro-flow 400), a cooled automatic BT 7041 sample injector (Biotronik) having a 75 μl sample loop, a Nucleosil C18 column (100*3 mm, 5 μm particles of Chrompack), a UV detector (Kratos) Spectroflow 757 (wavelength: 280 nm, measurement range: 0.1 AUFS, time constant: 0.5 s) and a Spectra Physics integrator (SP 4270). The eluent (725 ml of methanol, 275 ml of water and 0.1 ml of acetic acid) was supplied at a flow rate of 0.7 ml/minute and at a pressure of about 100 bar.
When doing this, the measurement range which has been set can be examined and altered if necessary. It is also vital to measure the test substances at the particular test concentration (e.g.: 10^-5 M) in PM16 before the cell incubation, since the test substances might conceal the LTB4 peak. If this is the case, a lower concentration must be selected.
as §1

[5] = 50 mg/kg orally, daily for 17 days, rat

Row | SMILES | inhibition in vivo at 50 mg/kg (adjuvant/arthritis model; [5]) | pIC50 [3] | other results
1 | C[C@@H](OC(=O)CN)[C@@H]1CC(c2cc(C(C)(C)C)c(O)c(C(C)(C)C)c2)=NO1 (relative stereo) [Example 77, Glycine-1-(3-(4-hydroxy-3,5-di-tert-butylphenyl)-2-isoxazoline-5-yl)ethyl ester hydrochloride] | 82% | 4.70 | activity at 10 µM ([1]; 10 μM): 74%; activity at 100 µM [1]: 30%; activity at 25 µM [2]: 100%
2 | CCCCCCCCCCCCCCCC(=O)O[C@H](C)[C@@H]1CC(c2cc(C(C)(C)C)c(O)c(C(C)(C)C)c2)=NO1 (relative stereo) [Example 81, 1-(3-(4-Hydroxy-3,5-di-tert-butylphenyl)-2-isoxazolin-5-yl)ethyl hexadecanoate (erythro isomer)] | 67% | – | activity at 100 µM [2]: 100%
3 | CC(C)(C)c1cc(C2=NO[C@H]([C@H](O)CO)C2)cc(C(C)(C)C)c1O (relative stereo) [Example 89, 3-(3,5-Di-tert-butyl-4-hydroxyphenyl)-5-(1,2-dihydroxyethyl)-2-isoxazoline,rac. erythro isomer] | 36% | 4.70 | –
4 | CC(C)(C)c1cc(C2=NO[C@H]([C@@H](O)CO)C2)cc(C(C)(C)C)c1O (relative stereo) [Example 90, 3-(3,5-Di-tert-butyl-4-hydroxyphenyl)-5-(1,2-dihydroxyethyl)-2-isoxazoline,rac. threo isomer] | 36% | 4.52 | –
5 | CC(OC(=O)[C@@H](N)Cc1ccccc1)c1cc(-c2cc(C(C)(C)C)c(O)c(C(C)(C)C)c2)no1 (single isomer, unassigned) [Example 71, L-Phenylalanine-1-(3-(4-hydroxy-3,5-di-tert-butylphenyl)isoxazol-5-yl)ethylester hydrochloride] | – | 5.00 to 5.30 | inhibition in vivo at 25 mg/kg (adjuvant/arthritis model; daily for 17 days, rat): 66%; activity at 1 µM ([1]; 1 μM): 79%; activity at 10 µM ([1]; 10 μM): 42%; activity at 25 µM [2]: 97%
6 | CC(OC(=O)[C@@H](N)Cc1ccccc1)c1cc(-c2cc(C(C)(C)C)c(O)c(C(C)(C)C)c2)no1.Cl (single isomer, unassigned) [Example 72, L-Phenylalanine-1-(3-(4-hydroxy-3,5-di-tert-butylphenyl)isoxazol-5-yl)ethylester hydrochloride] | – | 5.00 to 5.30 | Test 6 Paw volume (% inhibition) (adjuvant/arthritis model; daily for 17 days, rat): 60%; Test 1 residual activity (release of proteolytic activity), percent of control ([1]; 1 μM): 82%; Test 1 residual activity (release of proteolytic activity), percent of control ([1]; 10 μM): 51%; Test 5 residual activity (cyclooxygenase-dependent thrombocyte aggregation), percent of control [2]: 100%
7 | CC(OC(=O)[C@@H](N)Cc1ccccc1)C1CC(c2cc(C(C)(C)C)c(O)c(C(C)(C)C)c2)=NO1 (single isomer, unassigned) [Example 74, L-Phenylalanine-1-(3-(4-hydroxy-3,5-di-tert-butylphenyl)isoxazolin-5-yl)ethyl ester hydrochloride] | – | 5.00 to 5.30 | inhibition in vivo at 25 mg/kg (adjuvant/arthritis model; daily for 17 days, rat): 60%; activity at 10 µM ([1]; 10 μM): 64%; activity at 25 µM [2]: 95%
8 | CC(OC(=O)[C@@H](N)Cc1ccccc1)C1CC(c2cc(C(C)(C)C)c(O)c(C(C)(C)C)c2)=NO1 (single isomer, unassigned) [Example 75, L-Phenylalanine-1-(3-(4-hydroxy-3,5-di-tert-butylphenyl)isoxazolin-5-yl)ethyl ester hydrochloride] | – | 5.00 to 5.30 | Test 6 Paw volume (% inhibition) (adjuvant/arthritis model; daily for 17 days, rat): 76%; Test 1 residual activity (release of proteolytic activity), percent of control ([1]; 10 μM): 49%; activity at 1 µM ([1]; 1 μM): 89%; Test 5 residual activity (cyclooxygenase-dependent thrombocyte aggregation), percent of control [2]: 98%
9 | CC(C)(C)c1cc(C2=NOC3(CC3)C2)cc(C(C)(C)C)c1O [Example 12] | 82% | 5.00 | –
10 | CC(O)CC1CC(c2cc(C(C)(C)C)c(O)c(C(C)(C)C)c2)=NO1 (centres unmarked) [Example 15] | 60% | 4.82 to 5.10 | –
11 | CC(C)(C)c1cc(-c2cc(CCCCO)on2)cc(C(C)(C)C)c1O [Example 27] | 71% | > 5.30 | activity at 100 µM [2]: 97%
12 | CC(O)Cc1cc(-c2cc(C(C)(C)C)c(O)c(C(C)(C)C)c2)no1 (centres unmarked) [Example 30] | 63% | 5.00 to 5.30 | –
13 | CC(C)(C)c1cc(-c2cc(CNC(=O)[C@@H](N)Cc3ccccc3)on2)cc(C(C)(C)C)c1O [Example 55, L-Phenylalanyl-N-(3-(4-hydroxy-3,5-di-tert-butylphenyl)-isoxazol-5-ylmethyl)amide hydrochloride] | – | > 5.30 | inhibition in vivo at 50 mg/kg (adjuvant/arthritis model): 47%
14 | CC(C)(C)c1cc(C2CC(c3ccncc3)=NO2)cc(C(C)(C)C)c1O (centres unmarked) [Example 60, 3-(4-Pyridyl)-5-(4-hydroxy-3,5-di-tert-butylphenyl)-2-isoxazoline] | – | – | activity at 10 µM [4]: 88%
15 | CC(C)(C)c1cc(-c2cc(C=O)on2)cc(C(C)(C)C)c1O [Example 66] | – | > 5.30 | inhibition in vivo at 25 mg/kg (adjuvant/arthritis model; daily for 17 days, rat): 59%
16 | CC(C)(C)c1cc(C2=NOC3(CCC3)C2)cc(C(C)(C)C)c1O [Example 67] | 53% | > 5.30 | –
17 | CC(C)(C)c1cc(C2=NOC(C(C)(C)O)C2)cc(C(C)(C)C)c1O (centres unmarked) [Example 69] | 83% | 5.00 to 5.30 | –
18 | CC(OC(=O)CN)c1cc(-c2cc(C(C)(C)C)c(O)c(C(C)(C)C)c2)no1 (centres unmarked) [Example 76, Glycine-1-(3-(4-hydroxy-3,5-di-tert-butylphenyl)isoxazol-5-yl)ethyl ester hydrochloride] | 70% | 4.70 | activity at 10 µM ([1]; 10 μM): 68%; activity at 100 µM [1]: 9%; activity at 25 µM [2]: 99%
